Assay results as given in paper PMC9546217, “Exploring novel nitrofuranyl sulfonohydrazides as anti‐Leishmania and anti‐cancer agents: Synthesis, in vitro efficacy and hit identification” (Chemical Biology & Drug Design, 2022).
Read-outs that look alike come from different tables or passages of the source.

Key:
[1] = system: Bacillus subtilis (ATCC 6633); design: method as in Alsaeedi et al., [2015]; conditions: diffusion method; ref Alsaeedi et al., [2015]; cited from earlier work
A375 melanoma cells = assay: Anticancer assay (resazurin); type: cell-based, human; conditions: for IC50: n = 3, read-out: Anticancer activity, IC50 ± SD, A375
Method: (§1) The anticancer activities of synthesized compounds were evaluated using a resazurin‐based assay (Czekanska, [2011]). Accordingly, a screening method similar to that of the cytotoxicity assay was used to screen for anticancer activity, using human melanoma (A375), promyelocytic leukemia (Clone 15 HL‐60), lung cancer (A549), and breast cancer (MCF7) cells. The culture and assay methods are provided in the Supinfo S1.
(§2) The potential anticancer activities of synthesized compounds were screened using the resazurin assay. ^5 Breast adenocarcinoma (MCF7, ATCC® HTB-22™) and human melanoma (A375, ATCC® CRL-1619™) cells were cultured in Hyclone Dulbecco's modified Eagle’s medium with high glucose (Separations) supplemented with 10 % fetal bovine serum (FBS) (Thermofisher Scientific) and 1 % L-glutamine, penicillin-streptomycin and non-essential amino acids (Lonza). Human lung carcinoma (A549, ATCC®, CCL-185™) cells were cultured in Ham’s F12K medium supplemented with 10% FBS and 1% L-glutamine, penicillin-streptomycin and non-essential amino acids. Human promyelocytic leukemia (Clone 15 HL-60, ATCC® CRL-1946™) cells were cultured in RPMI-1640 medium (Sigma Aldrich) supplemented with 10% FBS and 1% penicillin-streptomycin. The cell lines were maintained in a humidified atmosphere at 37 °C and 5% CO2.
(§3) For the resazurin assay, 96 well plates were prepared with 100 μL of 100 000 cells/mL MCF7 cell suspension, 100 μL of 50 000 cells/mL A375 cell suspension, 100 μL of 25 000 cells/mL A549 cell suspension, or 50 μL of 50 000 cells/mL HL-60 cell suspension. The MCF7, A375 and A549 cell plates were incubated for 24 hours to allow adherence of the cells to the plate surface, after which the growth medium is replaced with 100 μL medium containing compounds. […] The cell lines were treated with: (i) parthenolide (Sigma Aldrich) (positive control); (ii) growth medium and solvent (negative control to compensate for possible solvent effects); (iii) growth medium and experimental compound solutions. […] Blanks contained growth medium without cells. The treated plates were incubated for 48 hours.
(§4) To initiate the resazurin assay, 50 μL of sterile-filtered resazurin sodium salt (Sigma Aldrich) solution (0.01 % in PBS) was added and the plates incubated for 2 hours (MCF7, A375 and A549 cells) or 24 hours (HL-60 cells). Absorbance was measured at 570 and 600 nm using the Thermofisher Scientific GO Multiscan plate reader. Data analysis was performed for each biological replicate using SkanIt 4.0 Research Edition software. Further data analysis, calculations and IC50 determinations were identical to that of the antileishmanial and cytotoxicity assays.
(§5) For the final IC50 of each compound, the mean IC50 of the biological replicates were calculated with standard deviation (SD).

[2] = system: Clone 15 HL‐60 promyelocytic leukemia cells; assay: Anticancer assay (resazurin); type: cell-based, human; conditions: for IC50: read-out: Anticancer activity, IC50 ± SD, Clone 15 HL‐60; for Preliminary screening, growth inhibition, Clone 15 HL‐60: cutoff 50% growth inhibition at 10 μM; for Selectivity Index SI1 (anticancer): IC50 Vero (Table 2)/IC50 Clone 15 HL‐60
Method: as §1, §2, §3, §4, §5

[3] = system: Pseudomonas aeruginosa (ATCC 27853); design: method as in Alsaeedi et al., [2015]; conditions: diffusion method; ref Alsaeedi et al., [2015]; cited from earlier work
[4] = system: Candida albicans (ATCC 10231); design: method as in Alsaeedi et al., [2015]; conditions: diffusion method; ref Alsaeedi et al., [2015]; cited from earlier work
[5] = Basal cytotoxicity, resazurin assay; conditions: African green monkey
Method: The assay method is available in the Supinfo S1.
African green monkey kidney epithelial (Vero) cells (Cellonex, South Africa) were cultured and the basal cytotoxicity of the synthesized compounds with antileishmanial and/or anticancer activity was evaluated using the resazurin assay, as described in Mangwegape et al. ^4 Emetine served as the standard cytotoxic drug. Further use of reference drugs, controls, data analysis, calculations and IC50 determinations were identical to that of the antileishmanial assay.

[6] = system: L. donovani strains (1S and 9515) amastigotes; assay: Anti-amastigote selectivity, strain not separated; type: cell-based; conditions: strain not given
Method: The activities of synthesized compounds against the intramacrophage parasites of the three Leishmania strains were evaluated using a modified, resazurin‐based method (Jain et al., [2012]; Njanpa et al., [2021]). Suspension cultures of human acute monocytic leukemia (THP‐1) cells were maintained in RPMI‐1640 medium (Sigma Aldrich) supplemented with 10% FBS and 1% penicillin–streptomycin, at 37°C and 5% CO2 in a humidified atmosphere. Duplicate 96‐well plates (for respective anti‐amastigote and cytotoxicity assays) were seeded with 200 μl of a 2.5 × 10^5 cells/ml suspension treated with 25 ng/ml phorbol 12‐myristate 13‐acetate (PMA), followed by 48‐h incubation to promote differentiation into adherent macrophages.
For the anti‐amastigote assay, differentiated plates were carefully washed with PBS, followed by the addition of 200 μl of stationary phase promastigotes in RPMI 1640 medium with 2% FBS. An MOI of 30:1 was used for all three Leishmania strains. The parasite‐treated plates were incubated for 24 h at 32°C (L. major) or 37°C (L. donovani) and 5% CO2 to promote infection of the macrophages. […] Blanks were represented by growth medium without cells, as well as parasite‐free THP‐1 cells. The treated plates were incubated for 72 h.
After incubation, the plates were gently washed three times with PBS to remove any remaining extracellular parasites. The wells were then treated with 20 μl of 0.05% sodium dodecyl sulfate in PBS for 30 s to lyse the host macrophages. Lysis was terminated by adding 180 μl promastigote growth medium with 10% FBS. To initiate the resazurin assay, 10 μl of resazurin solution (0.025% in PBS) was added to all wells and the plates were incubated for 24 h at 32°C (L. major) or 37°C (L. donovani) and 5% CO2. Absorbance measurements, calculations, and IC50 determinations were performed as described for the antipromastigote assay (Supinfo S1).

THP‐1 cells = assay: Cytotoxicity on differentiated host THP-1 macrophages, resazurin assay; type: cell-based, human; conditions: differentiated THP-1 macrophages, 72 h; read-out: Cytotoxicity, IC50 ± SD, THP‐1
Method: Duplicate 96‐well plates (for respective anti‐amastigote and cytotoxicity assays) were seeded with 200 μl of a 2.5 × 10^5 cells/ml suspension treated with 25 ng/ml phorbol 12‐myristate 13‐acetate (PMA), followed by 48‐h incubation to promote differentiation into adherent macrophages.
Cytotoxicity of the compounds on the differentiated host THP-1 cells were also evaluated. As mentioned, duplicate plates of differentiated THP-1 cells were prepared during the anti-amastigote assay. These plates were incubated for 72 hours to differentiate, instead of replacing the growth medium with parasite-containing medium after 48 hours. […] Blanks were growth medium without cells. The treated plates were incubated for 72 hours, followed by the addition of 50 μL of resazurin solution (0.01% in PBS) to each well and 24-hour incubation.

Row | Compound | IC50 (A375 melanoma cells; Homo sapiens, A-375) | IC50 ([2]; Homo sapiens, HL-60, n = 3) | Preliminary screening, growth inhibition, Clone 15 HL‐60 [2] | Selectivity Index SI1 (anticancer) [2] | IC50 ([2]; n = 3) | IC50 ([5]; Vero cells (kidney epithelial)) | selectivity index (SI) relative to the host THP‐1 cells [6] | selectivity index (SI) toward Vero cells [6] | other results
1 | Cc1ccc(S(=O)(=O)N/N=C/c2ccc([N+](=O)[O-])o2)cc1 [2c, (E)-4-Methyl-N'-[(5-nitrofuran-2-yl)methylene]benzenesulfonohydrazide] | > 10 µM | > 10 µM | qualified |  |  |  |  |  | antimicrobial activity (inhibition zone) [1]: no activity; antimicrobial activity (inhibition zone) [3]: no activity; antimicrobial activity (inhibition zone) [4]: no activity
2 | CC(C)c1ccc(S(=O)(=O)N/N=C/c2ccc([N+](=O)[O-])o2)cc1 [2d, (E)-4-Isopropyl-N'-[(5-nitrofuran-2-yl)methylene]benzenesulfonohydrazide] | > 10 µM | < 10 µM |  | 3 | 7.85 ± 0.38 µM | 22.2 ± 0.8 µM |  |  | 
3 | CC(C)(C)c1ccc(S(=O)(=O)N/N=C/c2ccc([N+](=O)[O-])o2)cc1 [2f, (E)-4-(tert-Butyl)-N'-[(5-nitrofuran-2-yl)methylene]benzenesulfonohydrazide] | > 10 µM |  |  | 6 |  | 29.2 ± 5.86 µM | > 10 | < 10 | 
4 | O=[N+]([O-])c1ccc(/C=N/NS(=O)(=O)c2ccc(-c3ccccc3)cc2)o1 [2h, (E)-N'-[(5-Nitrofuran-2-yl)methylene]-(1,1'-biphenyl)-4-sulfonohydrazide] | 8.05 ± 0.57 µM |  | qualified | 17 |  | 16.4 ± 5.8 µM | > 10 | < 10 | Selectivity index SI2 (anticancer) (A375 melanoma cells; IC50 Vero (Table 2)/IC50 A375): 2; Preliminary screening, growth inhibition, A375 (A375 melanoma cells; cutoff 50% growth inhibition at 10 μM): qualified
5 | O=[N+]([O-])c1ccc(/C=N/NS(=O)(=O)c2cccc3c2OCCO3)o1 [2l, (E)-N'-[(5-Nitrofuran-2-yl)methylene]-2,3-dihydrobenzo[b][1,4]dioxine-5-sulfonohydrazide] | > 10 µM | > 10 µM |  |  |  | 41.2 ± 3.3 µM | > 10 | < 10 | 
6 | O=Cc1ccc([N+](=O)[O-])o1 [NFA, 5‐nitro‐2‐furaldehyde, reference compound] | > 10 µM | < 10 µM |  | 2 | 9.45 ± 0.61 µM | 23.2 ± 2.62 µM |  |  | IC50 (THP‐1 cells): 80.9 ± 6.37 µM
7 | O=C1CN(/N=C/c2ccc([N+](=O)[O-])o2)C(=O)N1 [NFT, nitrofurantoin, reference compound] | > 10 µM | > 10 µM |  |  |  |  |  |  | IC50 [5]: > 100 µM
8 | O=C(N/N=C/c1ccc([N+](=O)[O-])o1)c1ccc(O)cc1 [NFX, Nifuroxazide, reference compound] | > 10 µM | 8.97 ± 0.47 µM |  | > 11 |  |  |  |  | IC50 [5]: > 100 µM
9 | (E)-2,4,6-Trimethyl-N'-[(5-nitrofuran-2-yl)methylene]benzenesulfonohydrazide [2e] |  |  | qualified |  | > 10 µM |  | > 10 | < 10 | IC50 (A375 melanoma cells): > 10 µM; IC50 (THP‐1 cells): > 100 µM
